According to patent publication US6416735B1 (priority 1999, dated 2002):
Counter-ions that a name gives are not always drawn. Like-named read-outs stand apart in the source and are kept apart here.

Columns and labels:
α7 nAChR = α7 nAChR (Rattus norvegicus, UniProt Q05941); experiment: biochemical; format: binding
[1] = in vivo; cited from earlier work
α4β2 nAChRs = α4β2 nAChRs (Rattus norvegicus, UniProt P09483+P12390); experiment: biochemical; format: binding
[2] = read-out: KI, inhibition of [^125I]Iodo-MLA binding

α7 nAChR, sequence (Q05941 23-502): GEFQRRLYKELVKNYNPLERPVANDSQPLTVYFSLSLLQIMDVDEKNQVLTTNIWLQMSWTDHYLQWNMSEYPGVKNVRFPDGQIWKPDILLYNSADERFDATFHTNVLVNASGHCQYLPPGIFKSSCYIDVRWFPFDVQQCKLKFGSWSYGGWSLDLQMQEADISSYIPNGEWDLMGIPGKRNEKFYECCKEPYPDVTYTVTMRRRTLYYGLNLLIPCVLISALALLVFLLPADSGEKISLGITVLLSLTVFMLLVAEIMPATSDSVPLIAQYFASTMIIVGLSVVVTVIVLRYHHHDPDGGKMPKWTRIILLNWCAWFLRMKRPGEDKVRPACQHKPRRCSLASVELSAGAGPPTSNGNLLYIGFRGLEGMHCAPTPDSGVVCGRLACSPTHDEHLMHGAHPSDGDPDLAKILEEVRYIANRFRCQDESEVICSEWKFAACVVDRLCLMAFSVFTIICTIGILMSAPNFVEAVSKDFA
α4β2 nAChRs, sequence (P12390 25-500): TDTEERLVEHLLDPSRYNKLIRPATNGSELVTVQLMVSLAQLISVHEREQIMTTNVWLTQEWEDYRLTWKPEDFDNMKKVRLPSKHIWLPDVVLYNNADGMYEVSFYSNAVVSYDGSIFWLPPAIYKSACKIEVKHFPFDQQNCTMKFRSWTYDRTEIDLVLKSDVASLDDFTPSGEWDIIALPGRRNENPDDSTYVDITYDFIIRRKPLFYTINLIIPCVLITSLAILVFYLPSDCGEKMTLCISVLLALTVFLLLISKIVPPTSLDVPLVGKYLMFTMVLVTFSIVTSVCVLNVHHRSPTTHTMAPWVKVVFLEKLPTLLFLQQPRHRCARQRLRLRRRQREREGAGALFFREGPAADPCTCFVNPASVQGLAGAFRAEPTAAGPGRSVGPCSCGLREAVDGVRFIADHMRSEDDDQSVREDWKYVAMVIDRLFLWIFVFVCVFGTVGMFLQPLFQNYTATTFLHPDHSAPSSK
α4β2 nAChRs, sequence (P09483 31-630): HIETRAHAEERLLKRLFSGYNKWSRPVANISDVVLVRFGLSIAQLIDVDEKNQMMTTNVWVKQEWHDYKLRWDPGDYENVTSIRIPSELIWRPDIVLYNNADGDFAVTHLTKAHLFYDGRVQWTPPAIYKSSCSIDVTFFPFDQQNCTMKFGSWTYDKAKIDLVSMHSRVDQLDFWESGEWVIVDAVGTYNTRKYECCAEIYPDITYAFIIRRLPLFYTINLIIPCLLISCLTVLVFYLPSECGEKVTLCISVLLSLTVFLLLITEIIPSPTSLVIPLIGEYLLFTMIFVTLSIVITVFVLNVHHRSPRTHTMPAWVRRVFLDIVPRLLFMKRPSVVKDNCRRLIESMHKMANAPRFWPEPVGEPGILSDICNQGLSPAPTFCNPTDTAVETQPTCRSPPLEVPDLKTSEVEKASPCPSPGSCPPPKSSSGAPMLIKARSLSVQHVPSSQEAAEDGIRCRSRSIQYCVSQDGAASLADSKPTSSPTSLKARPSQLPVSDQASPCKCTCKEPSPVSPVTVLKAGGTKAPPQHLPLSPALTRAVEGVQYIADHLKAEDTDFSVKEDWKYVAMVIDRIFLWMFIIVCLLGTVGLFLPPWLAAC

**Q.** For CCN1CC2(COC(=O)c3cc(I)ccc3N3C(=O)CC(C)C3=O)CCC(OC)C34C5CC6C(OC)CC(O)(C5C6OC)C(O)(C(OC)C23)C14 (stereo not shown) (as salt: citrate) [iodo-MLA, Iodo-methyllycaconitine], which melting point is on record?
**A.** Its melting point is 115 to 116 °C.

**Q.** Which “displacing [^125I]iodo-MLA (in words)” value (α7 nAChR) does the source give for CN1CCCC1c1cccnc1 (single isomer, unassigned; (-)) [(-)-Nicotine] here?
**A.** Its value is “weak or ineffective”.

**Q.** With C(=Cc1ccccc1)C=C1CCCN=C1c1cccnc1 [3-Cinnamylidene-anabasine] as the compound, how does the Ki (α7 nAChR; [2]) read?
**A.** Its Ki is 15.3 ± 2 nM.

**Q.** What does the source list for CO[C@H]1CC=C2CCN3CCC4=C(CC(=O)OC4)[C@]23C1 [Dihydro-β-erythroidine]?
**A.** displacing [^125I]iodo-MLA (in words) (α7 nAChR): weak or ineffective; Ki (α7 nAChR; [2]): > 10000 nM

**Q.** Which “crossing of the blood-brain barrier” value [1] does the source give for CCN1C[C@]2(COC(=O)c3ccccc3N3C(=O)C[C@H](C)C3=O)CC[C@H](OC)[C@@]34[C@@H]5C[C@H]6[C@H](OC)[C@@H]5[C@](O)(C[C@@H]6OC)[C@@](O)([C@@H](OC)[C@H]23)[C@@H]14 [MLA, Methyllycaconitine] here?
**A.** Its value is “crosses the blood-brain barrier”.

**Q.** Which Ki (α7 nAChR) does the source give for CNC1(C)C2CCC(C2)C1(C)C (stereo not shown) [Mecamylamine] here?
**A.** Its Ki is over 10000 nM.

**Q.** And the “displacing [^125I]iodo-MLA (in words)” value (α7 nAChR)?
**A.** Its value is “weak or ineffective”.

**Q.** Which results are given for CCN1CC2(COC(=O)c3cc(I)ccc3N3C(=O)CC(C)C3=O)CCC(OC)C34C5CC6C(OC)CC(O)(C5C6OC)C(O)(C(OC)C23)C14 (stereo not shown) [iodo-MLA, Iodo-methyllycaconitine]?
**A.** Ki (α4β2 nAChRs): > 1000 nM; affinity at α4β2 nAChRs (in words) (α4β2 nAChRs): poor affinity

**Q.** With α-Bungarotoxin as the compound, how does the “Ki for displacing [^125I]iodo-MLA (in words)” value (α7 nAChR) read?
**A.** The value was “low nanomolar range”.

**Q.** And the Ki (α7 nAChR; [2])?
**A.** The Ki was 2 ± 0.1 nM.

**Q.** And the “crossing of the blood-brain barrier” value [1]?
**A.** The value was “does not cross the blood-brain barrier”.
